What was measured:
[1] = molecular target: T1, Dual specificity calcium/calmodulin-dependent 3',5'-cyclic nucleotide phosphodiesterase 1C (Homo sapiens, UniProt Q14123); experiment: Inhibition of PDE1C (147 to 531 residues) (unknown origin) expressed in Escherichia coli BL21 using [3H]-cGMP as substrate measured for 15 mins by liquid scintillation counter method
[2] = molecular target: T1, Dual specificity calcium/calmodulin-dependent 3',5'-cyclic nucleotide phosphodiesterase 1C; experiment: Inhibition of PDE1C (147 to 531 residues) (unknown origin) expressed in Escherichia coli BL21 at 1000 nM [3H]-cGMP as substrate measured for 15 mins by liquid scintillation counter method relative to control

T1 sequence (Q14123 whole entry, the tested form may be a part): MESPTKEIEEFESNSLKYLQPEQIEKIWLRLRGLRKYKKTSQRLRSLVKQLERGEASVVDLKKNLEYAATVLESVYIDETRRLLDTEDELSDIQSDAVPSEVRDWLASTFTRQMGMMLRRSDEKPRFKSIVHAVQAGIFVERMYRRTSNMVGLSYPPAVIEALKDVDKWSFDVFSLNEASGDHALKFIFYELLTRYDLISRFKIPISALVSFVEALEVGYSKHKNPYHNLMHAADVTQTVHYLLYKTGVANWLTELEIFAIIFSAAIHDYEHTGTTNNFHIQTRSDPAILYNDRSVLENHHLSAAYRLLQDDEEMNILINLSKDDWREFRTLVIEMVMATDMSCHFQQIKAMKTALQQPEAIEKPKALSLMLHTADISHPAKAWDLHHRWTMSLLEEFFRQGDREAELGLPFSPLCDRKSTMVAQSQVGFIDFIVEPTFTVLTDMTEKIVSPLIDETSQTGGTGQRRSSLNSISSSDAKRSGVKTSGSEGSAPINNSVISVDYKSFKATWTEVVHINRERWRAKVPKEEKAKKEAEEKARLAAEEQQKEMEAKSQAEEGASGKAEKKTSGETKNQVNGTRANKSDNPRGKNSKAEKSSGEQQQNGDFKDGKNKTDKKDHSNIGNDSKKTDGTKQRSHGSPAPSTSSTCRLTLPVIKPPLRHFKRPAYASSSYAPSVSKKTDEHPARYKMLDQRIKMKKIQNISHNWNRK

SMILES | IC50 [1] [µM] | inhibition [2] [%]
CC1=C(C(=O)OCc2cncs2)C(c2ccc3c(cnn3C)c2)C(C(=O)OCc2cncs2)=C(C)N1 | 0.189 | –
COC(=O)C1=C(C)NC(C)=C(C(=O)OC)C1c1ccc(OC)c(OC)c1 | – | 43

— ChEMBL document CHEMBL5154941, “Structural Modifications of Nimodipine Lead to Novel PDE1 Inhibitors with Anti-pulmonary Fibrosis Effects” (J Med Chem, 2022)
